Consider 24 compounds from patent publication EP4759814A1, “TRICYCLIC COMPOUND AND USE THEREOF AS MAT2A INHIBITOR” (SK Biopharmaceuticals Co., Ltd., priority 2023, dated 2025).

One assay has as its target T1, MAT2A (Homo sapiens, UniProt P31153).
T1 construct: purchased BPS Bioscience (USA) 71401
As to the kind of experiment: MAT2A inhibitory activity, colorimetric phosphate detection (PiColorLock) enzyme assay. It is filed as biochemical. To be noted: Test Condition 1 or 2 (not stated which per compound); absorbance at 630 nm. Summed up: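 Compound preincubated 30 min at room temperature with enzyme, then reacted 1 h with ATP and Met; phosphate read colorimetrically at 630 nm. Condition 1: top 50 µM, 12 ng/µL enzyme, 100 µM ATP, 80 µM Met. Condition 2: top 1 µM, 4 ng/µL enzyme, 300 µM ATP, 150 µM Met. Tris pH 8.0 buffer; IC50 by 4-parameter fit.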

Assay [1] concerns HCT116 (MTAP del) cell line. As to the kind of experiment: Cell proliferation inhibition in MTAP-deficient cancer cells, WST-1 assay. It is filed as cell-based. To be noted: Homo sapiens, HCT-116, 120 hours of drug treatment, maximum concentration 10 µM, read-out: HCT116 MTAP^-/- (IC50, cell proliferation inhibited by 50%). The protocol: (§1) The HCT116 (MTAP del) cell line, which is a colorectal cancer cell line with deletion of MTAP gene, was treated with a compound according to an embodiment of the present application as a MAT2A inhibitor, and after culturing for 120 hours, the change in the number of cells was measured with a WST-1 assay reagent. The WST-1 assay is an assay that measures the number of cells by measuring the generation of a chromogenic substance called formazan from tetrazolium salts by intracellular mitochondrial dehydrogenase. In addition, as a control group, a wild-type colorectal cancer HCT116 (MTAP WT) cell line containing the MTAP gene was used to perform the experiment in the same manner as the experimental group.
(§2) Cell lines and reagents: HCT116 (MTAP WT (catalog number HD PAR-034), MTAP del (catalog number HD R02-033)) cell lines were purchased from Horizon Discovery (USA), and RPMI1640 medium (catalog number 22400-093), FBS (Fetal Bovine serum, catalog number 16000044), and Penicillin/Streptomycin (catalog number 15140-122) were purchased from GIBCO (USA). WST-1 (catalog number EZ-BULK150) was purchased from Dogen (Korea).
(§3) Experimental procedure: HCT116 (MTAP WT, MTAP del) cell lines were dispensed into a 96-well plate at a concentration of 1,000 cells/well in RPMI1640 culture medium containing 10% FBS and 1% Penicillin/Streptomycin, and allowed to attach for 24 hours. When the cells were attached to the plate, the drug was diluted 4-fold from a maximum concentration of 10 µM and treated on the cells. After 120 hours of drug treatment, 20 µL of WST-1 solution was treated for 2 hours, and absorbance at 450 nm was measured using SpectraMax M4 (Molecular Devices). Data analysis was calculated by taking the DMSO control group value as 100%. For the IC50 value, the concentration at which cell proliferation is inhibited by 50% was calculated through interpolation using a 4-parameter fit of the dose-response curve using the GraphPad Prism 8.4.3 program. The cancer cell proliferation inhibitory ability and selectivity in MTAP-deficient cancer cells of the compounds according to an embodiment of the present application are described in Table 3 (+++: 1 to 100 nM, ++: more than 100 to 1,000 nM, +: more than 1 to 10 µM, -: more than 10 µM).

For assay [2], the system named is HCT116 (MTAP WT) cell line. As to the kind of experiment: Cell proliferation inhibition in wild-type control cells, WST-1 assay. It is filed as cell-based. To be noted: Homo sapiens, HCT-116, 120 hours of drug treatment, maximum concentration 10 µM, read-out: HCT116 WT (IC50, cell proliferation inhibited by 50%). The protocol:
as §1, §2, §3

T1 sequence (P31153 whole entry): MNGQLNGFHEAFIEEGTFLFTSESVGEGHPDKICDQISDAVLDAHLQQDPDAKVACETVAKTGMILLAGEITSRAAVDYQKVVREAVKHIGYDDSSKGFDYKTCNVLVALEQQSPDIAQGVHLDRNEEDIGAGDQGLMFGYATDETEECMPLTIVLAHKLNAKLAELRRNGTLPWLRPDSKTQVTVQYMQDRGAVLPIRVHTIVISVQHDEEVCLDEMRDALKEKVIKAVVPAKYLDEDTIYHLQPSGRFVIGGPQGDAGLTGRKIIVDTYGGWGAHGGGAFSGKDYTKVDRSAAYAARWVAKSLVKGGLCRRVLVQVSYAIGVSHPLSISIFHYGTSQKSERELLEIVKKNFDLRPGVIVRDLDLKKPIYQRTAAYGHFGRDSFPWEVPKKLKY

Regarding `Cc1ccccc1-n1c(=O)c2nccn2c2ccc(OCC(F)(F)F)cc21` [Example 28, 5-(o-tolyl)-7-(2,2,2-trifluoroethoxy)imidazo[1,2-a]quinoxalin-4(5H)-one], the IC50 (at MAT2A; in assay [1]; in assay [2]) was greater than 10000 nM throughout.
For `CCOc1ccc2c(c1)n(-c1ccccc1C)c(=O)c1nccn12` [Example 30, 7-ethoxy-5-(o-tolyl)imidazo[1,2-a]quinoxalin-4(5H)-one], the IC50 (against MAT2A; in assay [1]; in assay [2]) was greater than 10000 nM each time.
For `Cc1ccccc1-n1c(=O)c2nccn2c2ccc(Br)cc21` [Example 32, 7-bromo-5-(o-tolyl)imidazo[1,2-a]quinoxalin-4(5H)-one], the IC50 against MAT2A lay in the range of 1 to 100 nM; in assay [1], 1 to 100 nM; in assay [2], 1000 to 10000 nM.
As to `Cc1ncccc1-n1c(=O)c2nccn2c2ccc(Cl)cc21` [Example 33, 7-chloro-5-(2-methylpyridin-3-yl)imidazo[1,2-a]quinoxalin-4(5H)-one], the IC50 against MAT2A was 1 to 100 nM; in assay [1] it was 1 to 100 nM; in assay [2], 100 to 1000 nM.
Regarding `Cc1ncccc1-n1c(=O)c2ncc(C)n2c2ccc(Cl)cc21` [Example 34, 7-chloro-1-methyl-5-(2-methylpyridin-3-yl)imidazo[1,2-a]quinoxalin-4(5H)-one], the IC50 against MAT2A lay in the range of 1 to 100 nM; in assay [1], 1 to 100 nM; in assay [2], 100 to 1000 nM.
Regarding `Cc1ccccc1-n1c(=O)c2nccn2c2ccc(Cl)nc21` [Example 35, 7-chloro-5-(o-tolyl)imidazo[1,2-a]pyrido[2,3-e]pyrazin-4(5H)-one], the IC50 on MAT2A was 100 to 1000 nM; in assay [1], 100 to 1000 nM; in assay [2], greater than 10000 nM.
As to `Cc1ccc2c(n1)n(-c1ccccc1C)c(=O)c1nccn12` [Example 36, 7-methyl-5-(o-tolyl)imidazo[1,2-a]pyrido[2,3-e]pyrazin-4(5H)-one], the figures for the IC50 (on MAT2A; in assay [1]; in assay [2]) were 100 to 1000 nM, 100 to 1000 nM and greater than 10000 nM, respectively.
Consider `COc1ccccc1-n1c(=O)c2nccn2c2ccc(Cl)cc21` [Example 37, 7-chloro-5-(2-methoxyphenyl)imidazo[1,2-a]quinoxalin-4(5H)-one], for which the values for the IC50 (at MAT2A; in assay [1]; in assay [2]) were 100 to 1000 nM, 100 to 1000 nM and greater than 10000 nM, respectively.
For the compound `O=c1c2nccn2c2ccc(Cl)cc2n1-c1ccccc1Br` [Example 38, 5-(2-bromophenyl)-7-chloroimidazo[1,2-a]quinoxalin-4(5H)-one], the IC50 is 100 to 1000 nM against MAT2A, 1 to 100 nM in assay [1] and greater than 10000 nM in assay [2].
`Cc1cccc(-n2c(=O)c3nccn3c3ccc(Cl)cc32)c1` [Example 39, 7-chloro-5-(m-tolyl)imidazo[1,2-a]quinoxalin-4(5H)-one]: the results for the IC50 (against MAT2A; in assay [1]; in assay [2]) were 100 to 1000 nM, 100 to 1000 nM and greater than 10000 nM, respectively.
As for `O=c1c2nccn2c2ccc(Cl)cc2n1-c1cccc(F)c1` [Example 40, 7-chloro-5-(3-fluorophenyl)imidazo[1,2-a]quinoxalin-4(5H)-one], the IC50 was 100 to 1000 nM at MAT2A, 100 to 1000 nM in assay [1] and greater than 10000 nM in assay [2].
With `Cc1cn2c(n1)c(=O)n(-c1cccnc1C)c1cc(Cl)ccc12` [Example 45, 7-chloro-2-methyl-5-(2-methylpyridin-3-yl)imidazo[1,2-a]quinoxalin-4(5H)-one], the IC50 fell in the range of 1 to 100 nM on MAT2A, 1 to 100 nM in assay [1] and 100 to 1000 nM in assay [2].
For `Cc1ccccc1-n1c(=O)c2nccn2c2ccc(C(F)F)nc21` [Example 46, 7-(difluoromethyl)-5-(o-tolyl)imidazo[1,2-a]pyrido[2,3-e]pyrazin-4(5H)-one], the IC50 is 100 to 1000 nM against MAT2A, 100 to 1000 nM in assay [1] and greater than 10000 nM in assay [2].
Turning to `Cc1ccccc1-n1c(=O)c2nccn2c2ccc(C(F)(F)F)nc21` [Example 49, 5-(o-tolyl)-7-(trifluoromethyl)imidazo[1,2-a]pyrido[2,3-e]pyrazin-4(5H)-one], the IC50 was 100 to 1000 nM against MAT2A, 100 to 1000 nM in assay [1] and greater than 10000 nM in assay [2].
As to `Cc1cccc(F)c1-n1c(=O)c2nccn2c2ccc(Cl)cc21` [Example 52, 7-chloro-5-(2-fluoro-6-methylphenyl)imidazo[1,2-a]quinoxalin-4(5H)-one], the IC50 was 100 to 1000 nM against MAT2A, 1000 to 10000 nM in assay [1] and greater than 10000 nM in assay [2].
On to `O=c1c2nccn2c2ccc(Cl)cc2n1-c1cccnc1Cl` [Example 54, 7-chloro-5-(2-chloropyridin-3-yl)imidazo[1,2-a]quinoxalin-4(5H)-one], for which the results for the IC50 (on MAT2A; in assay [1]; in assay [2]) were 1 to 100 nM, 1 to 100 nM and 100 to 1000 nM, respectively.
For the compound `Cc1cn2c(n1)c(=O)n(-c1cccnc1C)c1cc(C(F)(F)F)ccc12` [Example 55, 2-methyl-5-(2-methylpyridin-3-yl)-7-(trifluoromethyl)imidazo[1,2-a]quinoxalin-4(5H)-one], the IC50 was in the range of 1 to 100 nM against MAT2A, 1 to 100 nM in assay [1] and 1000 to 10000 nM in assay [2].
Take `Cc1ncccc1-n1c(=O)c2nccn2c2ccc(C(F)(F)F)cc21` [Example 56, 5-(2-methylpyridin-3-yl)-7-(trifluoromethyl)imidazo[1,2-a]quinoxalin-4(5H)-one]: the IC50 lay in the range of 100 to 1000 nM against MAT2A, 1 to 100 nM in assay [1] and 1000 to 10000 nM in assay [2].
As to `Cc1ncccc1-n1c(=O)c2ncc(Br)n2c2ccc(C(F)(F)F)cc21` [Example 57, 1-bromo-5-(2-methylpyridin-3-yl)-7-(trifluoromethyl)imidazo[1,2-a]quinoxalin-4(5H)-one], the figures for the IC50 (against MAT2A; in assay [1]; in assay [2]) were 100 to 1000 nM, 1 to 100 nM and 100 to 1000 nM, respectively.
With `Cc1ncccc1-n1c(=O)c2ncc(C)n2c2ccc(C(F)(F)F)cc21` [Example 58, 1-methyl-5-(2-methylpyridin-3-yl)-7-(trifluoromethyl)imidazo[1,2-a]quinoxalin-4(5H)-one], the IC50 against MAT2A is 100 to 1000 nM; in assay [1], 1 to 100 nM; in assay [2], 100 to 1000 nM.
As to `CC(=O)c1nc2c(=O)n(-c3cccnc3C)c3cc(C(F)(F)F)ccc3n2c1O` [Example 60, 2-acetyl-1-hydroxy-5-(2-methylpyridin-3-yl)-7-(trifluoromethyl)imidazo[1,2-a]quinoxalin-4(5H)-one], the results for the IC50 (on MAT2A; in assay [1]; in assay [2]) were 100 to 1000 nM, greater than 10000 nM and greater than 10000 nM, respectively.
As for `O=c1c2nccn2c2ccc(C(F)(F)F)cc2n1-c1cccc2c1CCO2` [Example 65, 5-(2,3-dihydrobenzofuran-4-yl)-7-(trifluoromethyl)imidazo[1,2-a]quinoxalin-4(5H)-one], the IC50 on MAT2A was in the range of 1 to 100 nM; in assay [1], 1 to 100 nM; in assay [2], 1000 to 10000 nM.
Turning to `Cc1ccccc1-n1c(=O)c2nccn2c2c(F)cc(Cl)cc21` [Example 71, 7-chloro-9-fluoro-5-(o-tolyl)imidazo[1,2-a]quinoxalin-4(5H)-one], the values for the IC50 (at MAT2A; in assay [1]; in assay [2]) were 1000 to 10000 nM, greater than 10000 nM and greater than 10000 nM, respectively.
In the case of `Cc1cc2c(cc1Cl)n(-c1ccccc1C)c(=O)c1nccn12` [Example 73, 7-chloro-8-methyl-5-(o-tolyl)imidazo[1,2-a]quinoxalin-4(5H)-one], the IC50 on MAT2A was 100 to 1000 nM; in assay [1], 100 to 1000 nM; in assay [2] it was greater than 10000 nM.
